Patent EP1056700B1, “MEDICINAL USES OF PHENYLALKANOLS AND DERIVATES” (ZingoTX Pty Ltd, priority 1997, dated 1999)
“And” between values parts separate entries of the source, which are not always exact repeats. Equal entries are not always repeated.

What was measured:
[1] = target: T1, SR Ca^2+-ATPase (Canis lupus familiaris, UniProt O46674); assay: Sarcoplasmic reticulum Ca^2+-ATPase assay; format: biochemical, dog; conditions: for SR Ca^2+-ATPase Activity: 0 µM = 100, dog cardiac SR
T1 construct: Effect of gingerols and their derivatives on the Ca^2+-ATPase activity of dog cardiac SR; from tissue; host or cells: dog heart (cardiac sarcoplasmic reticulum)
T1 sequence (O46674 whole entry): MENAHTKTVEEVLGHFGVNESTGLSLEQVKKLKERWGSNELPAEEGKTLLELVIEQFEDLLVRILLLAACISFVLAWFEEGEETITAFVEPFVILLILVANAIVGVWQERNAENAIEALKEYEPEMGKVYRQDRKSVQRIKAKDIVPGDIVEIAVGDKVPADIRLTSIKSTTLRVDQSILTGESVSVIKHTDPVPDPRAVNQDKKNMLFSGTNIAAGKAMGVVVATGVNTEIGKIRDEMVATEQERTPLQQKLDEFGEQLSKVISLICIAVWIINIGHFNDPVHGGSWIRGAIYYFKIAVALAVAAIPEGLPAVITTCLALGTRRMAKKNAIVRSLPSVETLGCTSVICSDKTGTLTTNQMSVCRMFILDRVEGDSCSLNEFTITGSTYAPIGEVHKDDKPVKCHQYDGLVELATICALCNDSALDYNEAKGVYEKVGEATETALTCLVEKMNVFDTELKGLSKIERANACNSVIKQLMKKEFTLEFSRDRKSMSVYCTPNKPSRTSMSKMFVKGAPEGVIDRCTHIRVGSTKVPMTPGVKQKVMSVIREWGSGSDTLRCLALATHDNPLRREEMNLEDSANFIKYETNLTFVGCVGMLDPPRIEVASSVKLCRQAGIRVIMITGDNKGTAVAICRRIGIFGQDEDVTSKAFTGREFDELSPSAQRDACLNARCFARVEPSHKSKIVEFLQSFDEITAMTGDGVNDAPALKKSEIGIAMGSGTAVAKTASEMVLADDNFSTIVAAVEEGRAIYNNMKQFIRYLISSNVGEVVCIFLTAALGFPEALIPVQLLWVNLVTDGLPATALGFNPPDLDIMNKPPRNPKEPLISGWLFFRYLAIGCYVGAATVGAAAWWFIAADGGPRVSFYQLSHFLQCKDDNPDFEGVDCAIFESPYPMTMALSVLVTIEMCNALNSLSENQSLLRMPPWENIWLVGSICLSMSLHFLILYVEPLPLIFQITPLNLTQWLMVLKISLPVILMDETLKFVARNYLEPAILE
Summary of the method: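 Dog cardiac SR Ca^2+-ATPase activity was measured with 20 mM ATP solution over 30 min at 37°C. Released inorganic phosphate was developed colorimetrically, read at 655 nm and quantified against a Pi standard curve, with controls lacking ATP or calcium. Compounds from 10 mM DMSO stocks were tested in duplicate at ≤2.5% final DMSO.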

[2] = system: DRG neuronal cells; assay: Peak [Ca^2+]i transients in cultured dorsal root ganglion neurons (Fura-2); format: cell-based, rat; conditions: 10 µM applied for 1 min, 2 mM Ca^2+
Summary of the method: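 Neonatal or adult Sprague-Dawley rat DRG neurons, Percoll-enriched and NGF-cultured, were loaded with 5 µM Fura-2 AM and imaged by 340/380 nm ratio at 20–23 °C in buffer with 2 mM Ca²⁺, pH 7.4. Compounds at 10 µM were perfused for 1 min, then washed out for 4 min. Viability was confirmed with 10 µM capsaicin and 50 mM KCl.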

[3] = system: Platelet rich plasma; assay: Platelet aggregation: [^3H]-serotonin release from platelet rich plasma, arachidonic acid initiated; format: cell-based; conditions: Homo sapiens, activation by EC50 concentration of arachidonic acid
Protocol: Blood was collected from healthy volunteers who had taken no medication in the previous two weeks. The anticoagulant used was 3.8 % trisodium citrate. Platelet rich plasma was prepared and incubated with [^3H]-serotonin. This was followed by addition of gingerol analogues. Platelet activation was initiated using the EC50 concentration for arachidonic acid. The percentage of [^3H]-serotonin release was measured using a liquid scintillation counter. Then, dose-response curves were established and IC50 values were obtained.

[4] = Brine shrimp toxicity bioassay; format: in vivo; conditions: Artemia salina (brine shrimp), in vivo; 24 hours, 2% DMSO

SR Ca^2+-ATPase Activity ([1]; 1 µM): 139 | SR Ca^2+-ATPase Activity ([1]; 5 µM): 158 | SR Ca^2+-ATPase Activity ([1]; 10 µM): 165 | SR Ca^2+-ATPase Activity ([1]; 25 µM): 200 | SR Ca^2+-ATPase Activity ([1]; 50 µM): 139 | SR Ca^2+-ATPase ↑ increase or stimulation ([1]; @ 25 µM): ↑100% @ 25 | IC50 ([1]; read-out: SR Ca^2+-ATPase IC50 = conc. for 50% inhibition): ~100 µM | IC50 [3]: 70.4 ± 3.8 µM
Structure (SMILES): CCCCCCCC(O)CC(=O)CCc1ccc(O)c(OC)c1 (centres unmarked) [[8]-gingerol, 5-hydroxy-1-(4-hydroxy-3-methoxyphenyl)dodecan-3-one, reference compound]
Number of capsaicin-sensitive cells responding [2]: 7 | Peak [Ca^2+]i (Average ±SD) [2]: 279 ± 111 nM | LC50 at 24 h [4]: 64 µM and 21 µg/mL
